The results in this text go back to patent publication US20230077811A1, “ACTIVATION OF NEUROPEPTIDE RECEPTORS ON PLASMACYTOID DENDRITIC CELLS TO TREAT OR PREVENT OCULAR DISEASES ASSOCIATED WITH NEOVASCULARIZATION AND INFLAMMATION” (Tufts Medical Center, Inc., priority 2020, published 2023).

Where two headings read alike, the source gives them in different places.

One test relates to human corneal pDCs. Briefly: Flow cytometry of human corneal pDCs incubated with THIQ for angiostatic proteins. The format is cell-based. The conditions noted are these: THIQ 10 ug/mL. From the text: Phenotypically murine and human pDCs express divergent sets of surface markers as reviewed by Rogers et al. (Rogers et al., Am. J. Transplant. 13:1125-1133, 2013). Human pDCs express the pan leukocyte marker CD45, BDCA2 (CD303), and BDCA4 (neuropilin-1). To examine the possibility that murine but not human pDCs express angiostatic molecules, human corneal eye bank research samples for ES, PF-4, TSP-1 and TIMP3 were examined. Human corneal tissues were obtained and processed by […] Eyebank (Ann Arbor, Mich., USA) according to a standardized eye banking protocols, and procedures. […] The exclusion criterion was tissue from donors with corneal neovascularization, or a history of diabetes, cancer, or keratitis. […] Pharmacol. Toxicol. 101:416-420, 2007; Sebhat et al., J. Med. Chem. 45:4589-4593, 2002) was utilized. The ability of THIQ (10 ug/mL) to impact murine and human pDCs was tested.

For a further test, the system named is suture induced CNV. Kind of test: Suture induced model of corneal neovascularization (CNV), CD31 whole mount quantification. The format is in vivo, C57BL/6 mice.
A further test relates to NF-kB. Briefly: Immunofluorescence of NF-kB (RelB, c-Rel) nuclear localization in sorted pDCs treated with THIQ. It is filed as cell-based, murine. The settings on record: THIQ 10 ug/mL, 24 hours, compared to control pDCs.
The subject of test [1] is phospho-PKCδ/θ (Ser643/676). Briefly: Immunoblot of PKC isoform phosphorylation in FACS-sorted pDCs treated with THIQ. The format is cell-based, murine. How it is done:
Previous studies have shown the MC4 receptor to couple to all three major classes of G proteins, Gs, Gi/o, and Gq depending on cell type (Tao, Endocr. Rev. 31:506-543, 2010). To test pDC MC4 signaling, FACS-sorted pDCs were incubated with THIQ (10 ug/mL) for 5, 15, or 30 minutes. Protein kinase C (PKC) isoform phosphorylation was examined by phospho-PKC specific antibodies and immunoblotting. Specifically, Splenic pDCs were FACs sorted as previously described. Five hundred thousand pDCs were used per condition and lysed directly with chilled 1× radioimmunoprecipitation assay (RIPA) buffer or 1× Laemmli Buffer on ice. Samples were diluted in NuPAGE sample loading buffer (ThermoFisher) and 1× NuPAGE Sample Reducing Agent (ThermoFisher) and heated to 70° C. for 10 minutes. Protein lysates were resolved on a 10% Bis-Tris SDS gel (ThermoFisher) and transferred to a nitrocellulose membrane (ThermoFisher). Membranes were blocked with odyssey blocking buffer (Licor) for one hour and incubated with protein specific primary antibodies (1:100 or 1:200) overnight at 4° C. Membranes were washed with blocking buffer and secondary antibodies were diluted (1:5000 or 1:15000) and incubated with membranes for 60 minutes at room temperature. Membranes were imaged using an Odyssey® CLx Imaging System (Licor). Image analysis was done using Image Studio software. Protein sampling kits for PKC, and NF-κB signaling antibodies were purchased from Cell signaling (Phospho-PKC Antibody Sampler Kit #9921 and NF-κB Pathway Sampler Kit #9936).

Another test relates to murine pDCs. Kind of test: Flow cytometry of murine pDCs incubated with THIQ for angiostatic proteins. The conditions noted are these: THIQ 10 ug/mL. It is filed as cell-based.
Test [2] concerns CNV in C57BL/6 to BALB/c corneal transplants. Briefly: High-risk corneal transplant model (C57BL/6 to BALB/c), CNV quantified by CD31 staining. The format is in vivo, BALB/c mice. The conditions noted are these: subconjunctival THIQ (10 ug/mL) every other day for 14 days, versus saline.
For the next test, the system named is splenic pDCs. Kind of test: Flow cytometry of splenic pDCs for ES and TSP-1 after 24 hours with neuropeptide receptor agonists. The format is cell-based, C57BL/6 mice.

Consider `O=C(N[C@H](Cc1ccc(Cl)cc1)C(=O)N1CCC(Cn2cncn2)(C2CCCCC2)CC1)[C@H]1Cc2ccccc2CN1` [THIQ, (3R)—N-[(2R)-3-(4-chlorophenyl)-1-[4-cyclohexyl-4-(1,2,4-triazol-1-ylmethyl)piperidin-1-yl]-1-oxopropan-2-yl]-1,2,3,4-tetrahydroisoquinoline-3-carboxamide], for which, in the test on human corneal pDCs, the “ES mean fluorescence intensity (MFI)” value is given as “increased”, the “PF4 mean fluorescence intensity (MFI)” value is on record as “increased”, the “TIMP3 mean fluorescence intensity (MFI)” value is given as “increased” and the “TSP-1 mean fluorescence intensity (MFI)” value was “increased”. The “Reduction of suture induced CNV” value in the test with suture induced CNV (subconjunctival injection of THIQ (10 ug/mL) every other day for 14 days, versus saline) is recorded as 46%. In addition, the “CNV, MC4 siRNA with THIQ versus control siRNA” value in the test with suture induced CNV (sutured C57BL/6, injected every other day for two weeks, THIQ together with siRNA against MC4) is given as “No statistical difference”. Moreover, in the test on NF-kB, the RelB nuclear localization entry is listed as “Increased” and the c-Rel nuclear localization result is “not”. The “Phosphorylation of additional PKC isoforms” value in test [1] (THIQ 10 ug/mL, 5, 15 or 30 minutes) is recorded as “not observed”. Besides, in test [1] (THIQ 10 ug/mL, 15 minutes, normalized to actin), the “PKCδ/θ (Ser643/676) phosphorylation” value is “decreased”. For the same compound, the “PKCδ/θ (Ser643/676) phosphorylation” value in test [1] (THIQ 10 ug/mL, 30 minutes, normalized to actin) is given as “decreased”. Besides, the “phospho-PKCδ/θ (Ser643/676) phosphorylation” value in test [1] (THIQ 10 ug/mL, five minutes, normalized to actin) is “Increased”. Also, in the test with murine pDCs, the “ES mean fluorescence intensity (MFI)” value is “increased”, the “PF4 mean fluorescence intensity (MFI)” value is reported as “increased”, the “TIMP3 mean fluorescence intensity (MFI)” value is listed as “increased” and the “TSP-1 mean fluorescence intensity (MFI)” value is “increased”. Moreover, the “CNV in corneal transplants” value in test [2] was “reduced”.

As for Dynorphin A, in the test on splenic pDCs, the “pDC ES protein expression” value was “increased” and the “pDC TSP-1 protein expression” value is “increased”.

On to `COC(=O)[C@H](CCCN=C(N)N)NC(=O)CCCc1c(-c2ccccc2)[nH]c2c(F)cc(F)cc12` [L-803,087], for which, in the test with splenic pDCs (24 hours, compared to baseline), the “pDC ES protein expression” value is “mixed impact” and the “pDC TSP-1 protein expression” value is listed as “mixed impact”.
